From patent US20250268889A1, “COMPOUNDS AND COMBINATIONS THEREOF FOR TREATING NEUROLOGICAL AND PSYCHIATRIC CONDITIONS” (priority 2022, published 2025)
Like-named read-outs stand apart in the source and are kept apart here.

Legend:
[1] = Pharmacokinetics in moderate renal impairment vs matched controls
Description: (§1) Data are GMRs and 90% CIs. References used are the matched healthy subjects for renal and hepatic impairment studies, and extensive or ultra-extensive CYP2D6 metabolizers respectively.

[2] = Pharmacokinetics in moderate hepatic impairment vs matched healthy subjects; details: patients having moderate hepatic impairment (Group 2)
Description: as §1

[3] = Solubility of the powder in water
[4] = Pharmacokinetics of the subject combination (steady state); details: for changes in AUC and Cmax with dose (dose proportionality): steady state, co-administered with bupropion; for AUC0-12 relative to that of bupropion / Cmax relative to peak level of bupropion: metabolite; for apparent elimination half-life: metabolites of bupropion
[5] = Pharmacokinetics in CYP2D6 poor metabolizers vs extensive metabolizers
Description: Approximately 7% to 10% of Caucasians and 3% to 8% of African Americans lack the capacity to metabolize CYP2D6 substrates and are classified as poor metabolizers.
as §1

[6] = Effect of food on pharmacokinetics of the subject combination; details: subject combination administered with food
[7] = Effect of concomitant 20 mg paroxetine on dextromethorphan exposure (Example 6); details: tablet of Example 4 twice daily, vs without paroxetine
[8] = Co-administration of paroxetine and the subject combination in healthy volunteers (Example 3); details: 29 healthy volunteers; paroxetine co-administered with the subject combination
[9] = system: patients with treatment-resistant depression or MDD; details: cited from earlier work
[10] = human, in vivo
plasma protein = test: Plasma protein binding; details: metabolite
[11] = after administration of the subject combination
[12] = 7 subjects with moderate (GFR 30-60 mL/min) renal impairment vs 6 matched controls
[13] = patients having moderate renal impairment

In the case of `CC(NC(C)(C)C)C(=O)c1cccc(Cl)c1.Cl` (racemic) [bupropion, (±)-1-(3-chlorophenyl)-2-[(1,1-dimethylethyl)amino]-1-propanone hydrochloride], the “increase in AUC0-12” value ([1]; human, in vivo) is reported as 1.80 fold, the “increase in Cmax” value ([1]; human, in vivo) is reported as 1.87 fold and the increase of exposure ([1]; human, in vivo) is reported as “approximately 2 fold”. The reduction of clearance ([1]; human, in vivo) was 50%, the “AUC0-12 and Cmax compared with healthy patients” value [2] was “not significantly different” and the solubility in water [3] was “highly soluble”. The “median Tmax” value [4, 11] was “about 2 hours”.

For `Br.COc1ccc2c(c1)[C@]13CCCC[C@@H]1[C@H](C2)N(C)CC3` [dextromethorphan, morphinan, 3-methoxy-17-methyl-, (9α, 13α, 14α), hydrobromide monohydrate], the increase of exposure [1, 12] was “approximately 2 fold”, the reduction of clearance [1, 12] was 50% and the “increase in AUC0-12” value [1, 13] was 2.21 fold. The “increase in Cmax” value [1, 13] was 2.10 fold, the “AUC0-12 and Cmax compared with healthy patients” value [2] was “not significantly different” and the “increase in AUC0-12 compared to extensive metabolizers” value ([5]; 3 poor metabolizers) was roughly 3.4 fold. For the same compound, the “increase in Cmax compared to extensive metabolizers” value ([5]; 3 poor metabolizers) was roughly 3 fold, the “steady state plasma concentrations compared to non-poor metabolizers” value ([5]; 12 poor metabolizers treated in efficacy trials) was “generally higher” and the solubility in water [3] was “sparingly soluble”. The “increase of mean elimination half-life compared to dextromethorphan given without bupropion” value ([4]; following 8 days of administration of the subject combination in extensive metabolizers) was “approximately 3 fold”, the “changes in AUC and Cmax with dose (dose proportionality)” value ([4]; varying doses of bupropion (75 to 150 mg)) was “less than dose-proportional” and the “changes in AUC and Cmax with dose (dose proportionality)” value ([4]; varying doses of dextromethorphan (30 to 60 mg)) was “greater than dose-proportional”. For the same compound, the “accumulation ratio at steady state based on AUC0-12” value ([4]; subject combination) was “about 32”, the “accumulation ratio at steady state based on Cmax” value ([4]; subject combination) was “about 20” and the “change of Cmax with food” value [6] was “unchanged”. For the same compound, the “decrease of AUC0-12 with food” value [6] was 14%, the “increase of AUC0-12 with concomitant paroxetine” value [7] was 2.69 fold and the “increase of Cmax with concomitant paroxetine” value [7] was 2.38 fold. The “increase of overall exposure by paroxetine” value [8] was 2.5 fold.

For `CC(NC(C)(C)C)C(O)c1cccc(Cl)c1` (centres unmarked) [erythrohydroxybupropion], the “AUC0-12 relative to that of bupropion” value [4, 11] was “about 1.2 times”, the “Cmax relative to peak level of bupropion” value [4, 11] was “approximately equal to” and the apparent elimination half-life [4] was roughly 44 h.

For `CN[C@]1(c2ccccc2Cl)CCCCC1=O` [esketamine, Esketamine], the “Incidence of Sedation (MOAA/S score <5)” value ([9]; 56 mg + oral AD, patients <65 years with TRD, fixed-dose study) is listed as 50%, the “Incidence of Sedation (MOAA/S score <5)” value ([9]; 84 mg + oral AD, patients <65 years with TRD, fixed-dose study) is listed as 61% and the “Incidence of Sedation (MOAA/S score <5)” value ([9]; 28 to 84 mg + oral AD, patients ≥65 years with TRD, flexible-dose study) is listed as 49%. The “incidence of sedation (MOAA/S score <5) compared to placebo plus oral antidepressant” value ([9]; adults with MDD with acute suicidal ideation or behavior) was “higher incidence of sedation”.

With `C[C@H]1NC(C)(C)CO[C@]1(O)c1cccc(Cl)c1` [hydroxybupropion] the “AUC0-12 relative to that of bupropion” value [4, 11] was “about 19 times”, the “Cmax relative to peak level of bupropion” value [4, 11] was “approximately 14 times” and the apparent elimination half-life [4] was “approximately 35 hours”.

In the case of `Fc1ccc([C@@H]2CCNC[C@H]2COc2ccc3c(c2)OCO3)cc1` [paroxetine], the “increase of overall exposure when co-administered with the subject combination” value [10] is reported as 1.2 fold.

In the case of `C[C@H](NC(C)(C)C)[C@@H](O)c1cccc(Cl)c1` [threohydroxybupropion], the “extent of protein binding compared with bupropion” value (plasma protein) is reported as “about half that seen with bupropion”, the “AUC0-12 relative to that of bupropion” value [4, 11] is reported as “about 7 times” and the “Cmax relative to peak level of bupropion” value [4, 11] is reported as “about 5 times”. It also gave an apparent elimination half-life [4] of roughly 33 h.
